Experimental data reported in patent US12171761B2, “Vilazodone inclusion complexes, compositions and preparation thereof” (Sunshine Lake Pharma Co., Ltd., priority 2016, dated 2024).

Assay: Solubility of vilazodone under different physiological pH conditions
Assay type: physicochemical
Description: The inventors discovered that a main cause of the difference in vilazodone bioavailability between fasted and fed conditions is the significant difference in the solubility of vilazodone under different physiological pH conditions. Vilazodone is mainly absorbed in the small intestine where the physiological pH is about 6.8, and the solubility of vilazodone under such a pH is very low. Thus the amount and rate of vilazodone that is dissolved in the stomach will affect its absorption in the small intestine. […] However, in a 0.1 N HCl solution (simulated stomach fasted conditions), the solubility of vilazodone is poor, resulting in a significant reduction in bioavailability.

## N#Cc1ccc2[nH]cc(CCCCN3CCN(c4ccc5oc(C(N)=O)cc5c4)CC3)c2c1 [Vilazodone, 5-(4-[4-(5-cyano-1H-indol-3-yl)butyl]-1-piperazinyl)-2-benzofuran-2-carboxamide]
0.1 N HCl solution (simulated stomach fasted conditions)
  solubility of vilazodone: poor
pH 3.1 buffer (simulated stomach fed conditions)
  solubility of vilazodone: dissolves well
Physiological pH about 6.8 (small intestine)
  solubility of vilazodone: very low
